Experimental findings from article PMC7044277 (Nature Communications, 2020) are described below.

Several values for one entry are separate records, joined by “and”; a condition that tells them apart may be missing. Equal entries are not always repeated.

Holding throughout (format): cell-based
Assay [1] has as its target T1, 320 non-olfactory GPCRs (Homo sapiens, UniProt Q9HBW9).
T1 construct: expressed in transfected cells; host or cells: HTLA cells

Assay [2] addresses T2, 320 non-olfactory GPCRs (Homo sapiens, UniProt P48960).
T2 construct: expressed in transfected cells; host or cells: HTLA cells

In assay [3] the target is T3, 320 non-olfactory GPCRs (Homo sapiens, UniProt P51582).
T3 construct: expressed in transfected cells; host or cells: HTLA cells
Particulars: receptor P2RY4; replicate values, Fig_4g.

Assay [4] has as its target T4, 320 non-olfactory GPCRs (Homo sapiens, UniProt O14842).
T4 construct: expressed in transfected cells; host or cells: HTLA cells
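Wherever Fold of Basal is given: compound tested at 1 µM final concentration.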
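Wherever GPCRome agonism screen response is given: fold over basal response of each receptor without drug.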

T3 sequence (P51582 whole entry): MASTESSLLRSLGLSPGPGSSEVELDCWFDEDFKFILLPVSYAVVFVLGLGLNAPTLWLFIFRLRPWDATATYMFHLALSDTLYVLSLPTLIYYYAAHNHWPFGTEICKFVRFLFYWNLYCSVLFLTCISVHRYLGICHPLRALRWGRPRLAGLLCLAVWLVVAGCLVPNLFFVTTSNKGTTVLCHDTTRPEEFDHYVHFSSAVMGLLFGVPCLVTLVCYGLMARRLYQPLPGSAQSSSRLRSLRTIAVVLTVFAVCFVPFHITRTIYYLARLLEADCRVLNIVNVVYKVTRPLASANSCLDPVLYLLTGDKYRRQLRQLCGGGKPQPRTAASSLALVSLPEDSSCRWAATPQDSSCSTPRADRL
T1 sequence (Q9HBW9 20-690): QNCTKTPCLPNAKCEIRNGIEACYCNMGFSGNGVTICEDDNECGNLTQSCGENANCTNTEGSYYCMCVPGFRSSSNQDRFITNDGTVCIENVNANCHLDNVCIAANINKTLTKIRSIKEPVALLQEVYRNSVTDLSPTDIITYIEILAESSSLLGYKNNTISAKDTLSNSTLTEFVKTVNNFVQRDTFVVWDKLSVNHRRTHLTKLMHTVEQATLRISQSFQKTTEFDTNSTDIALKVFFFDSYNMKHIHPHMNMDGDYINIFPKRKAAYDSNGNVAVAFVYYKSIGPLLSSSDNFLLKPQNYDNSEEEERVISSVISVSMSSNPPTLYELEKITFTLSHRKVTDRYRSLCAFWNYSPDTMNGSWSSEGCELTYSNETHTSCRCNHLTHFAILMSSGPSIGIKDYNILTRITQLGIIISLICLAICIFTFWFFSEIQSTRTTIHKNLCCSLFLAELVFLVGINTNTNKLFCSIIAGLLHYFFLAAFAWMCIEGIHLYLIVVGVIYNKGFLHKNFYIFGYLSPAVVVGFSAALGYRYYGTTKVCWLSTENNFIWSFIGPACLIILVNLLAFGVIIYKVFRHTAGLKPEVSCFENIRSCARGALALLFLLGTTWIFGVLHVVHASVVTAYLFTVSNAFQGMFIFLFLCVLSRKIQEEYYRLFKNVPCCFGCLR
T2 sequence (P48960 21-835): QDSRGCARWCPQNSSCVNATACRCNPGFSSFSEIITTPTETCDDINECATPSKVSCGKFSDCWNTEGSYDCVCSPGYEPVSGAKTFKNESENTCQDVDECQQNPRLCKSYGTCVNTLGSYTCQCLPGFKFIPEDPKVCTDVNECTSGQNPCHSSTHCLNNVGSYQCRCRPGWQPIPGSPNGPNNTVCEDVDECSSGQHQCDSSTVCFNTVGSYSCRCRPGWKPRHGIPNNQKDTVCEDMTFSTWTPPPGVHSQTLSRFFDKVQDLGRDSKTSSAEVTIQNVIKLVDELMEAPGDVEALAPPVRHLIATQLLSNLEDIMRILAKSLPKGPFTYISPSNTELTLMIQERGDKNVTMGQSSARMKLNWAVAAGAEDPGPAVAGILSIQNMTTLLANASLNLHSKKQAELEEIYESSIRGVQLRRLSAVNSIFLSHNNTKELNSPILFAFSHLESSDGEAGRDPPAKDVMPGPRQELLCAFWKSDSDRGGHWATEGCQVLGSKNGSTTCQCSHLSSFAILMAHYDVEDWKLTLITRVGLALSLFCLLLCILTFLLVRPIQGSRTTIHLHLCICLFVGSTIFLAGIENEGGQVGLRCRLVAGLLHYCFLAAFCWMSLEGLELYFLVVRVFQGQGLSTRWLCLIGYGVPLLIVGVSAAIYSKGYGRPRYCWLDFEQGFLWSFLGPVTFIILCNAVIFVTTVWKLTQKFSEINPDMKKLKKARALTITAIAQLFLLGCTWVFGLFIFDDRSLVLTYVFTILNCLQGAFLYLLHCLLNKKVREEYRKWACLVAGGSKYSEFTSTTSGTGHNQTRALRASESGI
T4 sequence (O14842 whole entry): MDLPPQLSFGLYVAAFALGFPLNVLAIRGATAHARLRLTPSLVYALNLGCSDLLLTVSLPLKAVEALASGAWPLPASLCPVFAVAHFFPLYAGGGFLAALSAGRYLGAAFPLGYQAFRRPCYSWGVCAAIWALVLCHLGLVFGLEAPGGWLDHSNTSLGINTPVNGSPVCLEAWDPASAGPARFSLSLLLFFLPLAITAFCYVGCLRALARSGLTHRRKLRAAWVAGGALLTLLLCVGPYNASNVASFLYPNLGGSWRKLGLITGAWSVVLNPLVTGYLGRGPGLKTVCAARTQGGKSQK

Take `CCOc1cccc2cc(C(C)NCC3(O)CCCCC3)oc12` (stereo not shown) [O4LE6]: the “Fold of Basal” value on 320 non-olfactory GPCRs [1] is 1.158 and 1.093 and 1.161 and 0.9931; on 320 non-olfactory GPCRs [2], 0.9696 and 0.6986 and 0.95 and 0.7013; at 320 non-olfactory GPCRs [4], 1.069 and 1.057 and 1.21 and 0.9963. Besides, on 320 non-olfactory GPCRs [3], the “GPCRome agonism screen response” value is 0.9286 and 1.003 and 1.314 and 2.009.
